Data as given in the supplement of paper PMC10307832.

Legend:
Assay in all cases: relative viability (nuclei count vs DMSO), 5 days (fraction); higher = more cells survive
CX-5461 + Linsitinib = compound: Cc1cnc(CNC(=O)c2c(=O)c3ccc(N4CCCN(C)CC4)nc3n3c2sc2ccccc23)cn1 [CX-5461] + C[C@]1(O)C[C@@H](c2nc(-c3ccc4ccc(-c5ccccc5)nc4c3)c3c(N)nccn32)C1 [Linsitinib] (partner 1 µM)
In short: (§1)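 Lung cancer cell lines, seeded in 1536-well plates, were treated the following day by pin tool with a single drug or with five library-drug doses (not always all listed) in √10 steps on top of a fixed anchor-drug dose. Cells were fixed and nuclei stained in one step after 5 days, and nuclei were counted. Relative viability is the nuclei count for treated wells divided by that for vehicle wells, reported as medians of duplicate plates.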

CX-5461 + Dasatinib = compound: Cc1cnc(CNC(=O)c2c(=O)c3ccc(N4CCCN(C)CC4)nc3n3c2sc2ccccc23)cn1 [CX-5461] + Cc1nc(Nc2ncc(C(=O)Nc3c(C)cccc3Cl)s2)cc(N2CCN(CCO)CC2)n1 [Dasatinib] (partner 0.075 µM)
In short: as §1

CX-5461 + Pemetrexed = compound: Cc1cnc(CNC(=O)c2c(=O)c3ccc(N4CCCN(C)CC4)nc3n3c2sc2ccccc23)cn1 [CX-5461] + Nc1nc2[nH]cc(CCc3ccc(C(=O)N[C@@H](CCC(=O)O)C(=O)O)cc3)c2c(=O)[nH]1 [Pemetrexed] (partner 0.2 µM)
In short: as §1

IMD-0354 + Lapatinib = compound: O=C(Nc1cc(C(F)(F)F)cc(C(F)(F)F)c1)c1cc(Cl)ccc1O [IMD-0354] + CS(=O)(=O)CCNCc1ccc(-c2ccc3ncnc(Nc4ccc(OCc5cccc(F)c5)c(Cl)c4)c3c2)o1 [Lapatinib] (partner 2 µM)
In short: as §1

Cell Line	relative viability (CX-5461 + Linsitinib; first compound 0.01 µM)	relative viability (CX-5461 + Linsitinib; first compound 0.03162 µM)	relative viability (CX-5461 + Linsitinib; first compound 0.1 µM)	relative viability (CX-5461 + Linsitinib; first compound 0.3162 µM)	relative viability (CX-5461 + Linsitinib; first compound 1 µM)	relative viability (CX-5461 + Dasatinib; first compound 0.01 µM)	relative viability (CX-5461 + Dasatinib; first compound 0.03162 µM)	relative viability (CX-5461 + Dasatinib; first compound 0.1 µM)	relative viability (CX-5461 + Dasatinib; first compound 0.3162 µM)	relative viability (CX-5461 + Dasatinib; first compound 1 µM)	relative viability (CX-5461 + Pemetrexed; first compound 0.01 µM)	relative viability (CX-5461 + Pemetrexed; first compound 0.03162 µM)	relative viability (CX-5461 + Pemetrexed; first compound 0.1 µM)	relative viability (CX-5461 + Pemetrexed; first compound 0.3162 µM)	relative viability (CX-5461 + Pemetrexed; first compound 1 µM)	relative viability (IMD-0354 + Lapatinib; first compound 0.04 µM)	relative viability (IMD-0354 + Lapatinib; first compound 0.1265 µM)	relative viability (IMD-0354 + Lapatinib; first compound 0.4 µM)	relative viability (IMD-0354 + Lapatinib; first compound 1.265 µM)	relative viability (IMD-0354 + Lapatinib; first compound 4 µM)
HCC-15	0.906	0.904	0.933	0.909	0.834	0.673	0.666	0.655	0.617	0.229	0.232	0.232	0.215	0.233	0.204	0.837	0.824	0.383	0.241	0.127
COR-L23	0.908	1.05	0.651	0.969	0.472	0.477	0.495	0.438	0.46	0.226	0.283	0.187	0.207	0.157	0.201	1.09	0.831	0.439	0.117	0.172
HCC-78	0.566	0.548	0.502	0.437	0.398	0.431	0.381	0.406	0.421	0.322	0.896	0.939	0.904	0.907	0.862	1.16	0.889	0.729	0.0878	0.234
NCI-H2087	1.03	0.999	0.946	0.811	1.05	0.938	0.903	0.736	0.793	0.554	0.689	0.657	0.684	0.712	0.654	0.872	0.991	0.419	0.137	0.178
BEN	1.01	0.967	1.01	0.827	0.727	0.322	0.271	0.313	0.377	0.279	0.75	0.742	0.711	0.759	0.556	0.601	0.878	0.373	0.266	0.229
EKVX	1.19	1.02	0.962		0.962	0.55	0.522	0.481	0.554	0.477	0.457	0.394	0.437		0.322	0.406	0.203		0.128	0.134
LXF-289	0.963	1	1.04	0.903	0.949	0.257	0.204	0.202	0.103	0.154	0.867	0.933	0.847		0.574	0.948	0.895	0.835	0.301	0.188
NCI-H650	0.955	0.999	0.697	0.571	0.373	0.423	0.431	0.448	0.482	0.389	1.05	0.986	0.879	0.943	0.873	1.11	0.864	0.614	0.451	0.22
NCI-H2085	0.923	1.03	0.911	0.952	0.864	0.237	0.228	0.257	0.229	0.252	1.03	0.907	0.88	0.989	0.799	0.78	0.797	0.64	0.389	0.298
NCI-H1944	1.27	1.26	1.05		1.18	0.208	0.204	0.168	0.14	0.11	0.561	0.653	0.531	0.451	0.271	0.699	0.862		0.922	0.171
LC-2-ad	0.808	0.886	0.829	0.858	0.833	0.59	0.713	0.546	0.406	0.27	0.238	0.27	0.244	0.296	0.279	0.947	0.924	0.354	0.192	0.116
COR-L 105	1.05	0.93	1.08	0.852	0.59	0.3	0.356	0.299	0.325	0.255	1.13	0.943	1.03	1.16	0.706	0.332	0.329	0.339	0.243	0.253
NCI-H1355	0.859	0.845	0.893	0.838	0.787	0.81	0.792	0.665	0.449	0.389	1.08	1.08	1.03	1.02	0.853	1.27	1.16	0.829	0.213	0.21
H3255	1.04	1.01	0.935	0.735	0.988	0.482	0.295	0.34	0.334	0.304	0.608	0.564	0.553	0.557	0.57	0.189	0.246	0.276	0.17	0.207
NCI-H1993	0.743	0.681	0.722	0.712	0.643	0.657	0.588	0.499	0.621	0.473	0.529	0.67	0.582	0.587	0.625	0.79	0.788	0.754	0.497	0.562
